In experiment [1] the target is menin/MLL (terbium chelate-labeled menin, FITC-MBM1 peptide) (Homo sapiens (Human), UniProt O00255). Put plainly: Menin/MLL homogenous time-resolved fluorescence (HTRF) assay.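 Further: IC50 from percent inhibition of HTRF signal, normalized between wells without competitor and wells with a saturating competitor that displaces FITC-MBM1 from His-tagged menin.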 It is filed as binding. On the technique in general: Time-resolved FRET reads energy transfer from a long-lived donor to a nearby acceptor.
menin/MLL (terbium chelate-labeled menin, FITC-MBM1 peptide), sequence (O00255 other isoform, or with tags, fused parts or gaps): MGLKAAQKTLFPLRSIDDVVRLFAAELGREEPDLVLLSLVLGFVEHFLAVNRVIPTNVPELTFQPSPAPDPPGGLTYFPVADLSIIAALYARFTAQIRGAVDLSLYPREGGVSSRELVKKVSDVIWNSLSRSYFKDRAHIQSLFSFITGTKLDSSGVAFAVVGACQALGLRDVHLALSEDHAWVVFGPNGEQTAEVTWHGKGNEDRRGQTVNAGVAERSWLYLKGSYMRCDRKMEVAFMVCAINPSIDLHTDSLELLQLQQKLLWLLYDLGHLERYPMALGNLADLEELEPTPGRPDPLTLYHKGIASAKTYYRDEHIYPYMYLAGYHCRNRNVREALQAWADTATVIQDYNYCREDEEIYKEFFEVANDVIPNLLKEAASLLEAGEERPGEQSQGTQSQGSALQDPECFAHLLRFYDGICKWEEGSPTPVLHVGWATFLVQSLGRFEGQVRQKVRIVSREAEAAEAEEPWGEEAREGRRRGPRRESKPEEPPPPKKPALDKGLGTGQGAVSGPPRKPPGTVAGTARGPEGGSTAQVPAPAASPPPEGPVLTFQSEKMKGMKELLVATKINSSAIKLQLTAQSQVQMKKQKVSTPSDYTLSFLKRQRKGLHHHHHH
Experiment [2] concerns KO-52 cells. Put plainly: Proliferation assay (spheroid growth, 8 days), KO-52 control cell line. The conditions noted are these: read-out: spheroid assay_OneTime KO-52 IC50. It is filed as cell-based, human. How it is done: (§1) The anti-proliferative effect of menin/MLL protein/protein interaction inhibitor test compounds was assessed in human leukemia cell lines. The cell line MOLM14 harbors a MLL translocation and expresses the MLL fusion protein MLL-AF9, respectively, as well as the wildtype protein from the second allele. OCI-AML3 cells that carry the NPM1c gene mutation were also tested. […] KO-52 was used as a control cell line containing two MLL (KMT2A) wildtype alleles in order to exclude compounds that display general cytotoxic effects.
(§2) KO-52 and OCI-AML3 cell lines were propagated in alpha-MEM (Sigma Aldrich) supplemented with 20% heat-inactivated fetal bovine serum (HyClone), 2 mM L-glutamine (Sigma Aldrich) and 50 μg/ml gentamycin (Gibco).
(§3) In order to assess the anti-proliferative effects, 200 MOLM14 cells, 200 OCI-AML3 cells or 300 KO-52 cells were seeded in 200 μl media per well in […] round bottom, ultra-low attachment plates (Costar, catalogue number 7007). Cell seeding numbers were chosen based on growth curves to ensure linear growth throughout the experiment. Test compounds were added at different concentrations and the DMSO content was normalized to 0.3%. Cells were incubated for 8 days at 37° C. and 5% CO2. Spheroid like growth was measured in real-time by live-cell imaging (IncuCyteZOOM, Essenbio, 4× objective) acquiring images at day 8. Confluence (%) as a measure of spheroid size was determined using an integrated analysis tool.
(§4) In order to determine the effect of the test compounds over time, the confluence in each well as a measure of spheroid size, was calculated. Confluence of the highest dose of a reference compound was used as baseline for the LC (Low control) and the confluence of DMSO treated cells was used as 0% cytotoxicity (High Control, HC).
(§5) GraphPad Prism(version 7.00) was used to calculate the IC50. Dose-response equation was used for the plot of % Effect vs Log 10 compound concentration with a variable slope and fixing the maximum to 100% and the minimum to 0%.

Experiment [3] concerns MOLM14 cells. Description: Proliferation assay (spheroid growth, 8 days), MOLM14.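 Further: spheroid size read as confluence by live-cell imaging, compounds added at a range of concentrations with 0.3% DMSO, DMSO-treated wells = 0%, highest reference dose = low control.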 The conditions noted are these: MOLM14, 8 days, read-out: spheroid assay_OneTime MOLM14 IC50. It is filed as cell-based, human.
Experiment [4] concerns MEIS1 mRNA. Description: MEIS1 mRNA expression assay (Quantigene Singleplex) in MOLM14 cells.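 Further: MEIS1 transcript levels read by probe hybridization and normalized to RPL28 mRNA, with IC50 fitted to fold changes across a rising compound concentration series.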 It is filed as cell-based, human. The conditions noted are these: 48 hours incubation.
In experiment [5] the test system is OCI-AML3 cells. Description: Proliferation assay (spheroid growth, 8 days), OCI-AML3. It is filed as cell-based, human. The conditions noted are these: Homo sapiens, OCI-AML-3, […], OCI-AML3, 8 days. As for the experimental part: as §1, §2, §3, §4, §5
Setting [6] is: HTRF-30 min incubation IC50, 30 min incubation.
The mark [7] stands for this setting: read-out: HTRF-30 min incubation IC50, 30 min incubation.

Structures can show the parent of a compound that is named as a salt. Where two headings read alike, the source gives them in different places.

For the compound `CCN(C(=O)c1cc(F)ccc1Oc1nncnc1N1CCC2(C1)CN([C@@H](CCCNC(=O)NC)C(C)C)C2)C(C)C` [Compound 9, (S)—N-ethyl-5-fluoro-N-isopropyl-2-((5-(2-(2-methyl-6-(3-methylureido)hexan-3-yl)-2,6-diazaspiro[3.4]octan-6-yl)-1,2,4-triazin-6-yl)oxy)benzamide], the IC50 (in general, the midpoint of a concentration-inhibition curve) in experiment [1] (setting [6]) was 44.7 nM; in experiment [2] (Homo sapiens, […]) it was greater than 15000 nM; in experiment [3] (Homo sapiens, MOLM-14, […]), greater than 3750 nM.

As to `CCN(C(=O)c1cc(F)ccc1Oc1nncnc1N1CCC2(C1)CN([C@@H](CCC(C)(C)N(C)C)C(C)C)C2)C(C)C` (single isomer, unassigned) [Compound 33, (*S)-2-((5-(2-(6-(dimethylamino)-2,6-dimethylheptan-3-yl)-2,6-diazaspiro[3.4]octan-6-yl)-1,2,4-triazin-6-yl)oxy)-N-ethyl-5-fluoro-N-isopropylbenzamide], the IC50 was 2.84 nM in experiment [1] (setting [6]); greater than 15000 nM in experiment [2] (Homo sapiens, […]); greater than 940 nM in experiment [3] (Homo sapiens, MOLM-14, […]); greater than 1000 nM in experiment [4] (Homo sapiens, MOLM-14, 48 h).

`CNC(=O)CC[C@H](C(C)C)N1CC2(CCN(c3ncnnc3Oc3ccc(F)cc3-c3cncnc3C3CC3)C2)C1` (single isomer, unassigned) [Compound 46, (*R)-4-(6-(6-(2-(4-cyclopropylpyrimidin-5-yl)-4-fluorophenoxy)-1,2,4-triazin-5-yl)-2,6-diazaspiro[3.4]octan-2-yl)-N,5-dimethylhexanamide]: the IC50 was 59.7 nM in experiment [1] (setting [7]), greater than 15000 nM in experiment [2], greater than 3750 nM in experiment [3] and greater than 2500 nM in experiment [4].

As to `CC(C)[C@H](CCC(N)=O)N1CC2(CCN(c3ncnnc3Oc3ccc(F)cc3-c3cncnc3C3CC3)C2)C1` (single isomer, unassigned) [Compound 44], the IC50 in experiment [1] (setting [6]) is 46.6 nM; in experiment [2] (Homo sapiens, […]), greater than 15000 nM; in experiment [3] (Homo sapiens, MOLM-14, […]), greater than 3750 nM; in experiment [4] (Homo sapiens, MOLM-14, 48 h) it was greater than 2500 nM.

On to `CC(C)[C@H](CCC(C)(C)N)N1CC2(CCN(c3ncnnc3Oc3ccc(F)cc3-c3cncnc3C3CC3)C2)C1` (single isomer, unassigned) [Compound 38, (*S)-5-(6-(6-(2-(4-cyclopropylpyrimidin-5-yl)-4-fluorophenoxy)-1,2,4-triazin-5-yl)-2,6-diazaspiro[3.4]octan-2-yl)-2,6-dimethylheptan-2-amine], for which the IC50 in experiment [1] (setting [6]) is 1.16 nM; in experiment [2] (Homo sapiens, […]), greater than 15000 nM; in experiment [3] (Homo sapiens, MOLM-14, […]) it was 520 nM; in experiment [4] (Homo sapiens, MOLM-14, 48 h), roughly 1100 nM.

For the compound `CCN(C(=O)c1cc(F)ccc1Oc1nncnc1N1CCC2(C1)CN([C@@H](CCCN)C(C)C)C2)C(C)C` [Compound 2, (S)-2-((5-(2-(6-amino-2-methylhexan-3-yl)-2,6-diazaspiro[3.4]octan-6-yl)-1,2,4-triazin-6-yl)oxy)-N-ethyl-5-fluoro-N-isopropylbenzamide formate], the IC50 in experiment [1] (setting [6]) is 3.31 nM; in experiment [2] (Homo sapiens, […]), greater than 15000 nM; in experiment [3] (Homo sapiens, MOLM-14, […]) it was 2220 nM; in experiment [4] (Homo sapiens, MOLM-14, 48 h) it was greater than 2500 nM.

On to `CCN(C(=O)c1cc(F)ccc1Oc1nncnc1N1CCC2(C1)CN(C(CCNC(C)=O)C(C)C)C2)C(C)C` (stereo not shown) [Compound 29], for which the IC50 in experiment [1] (setting [6]) was 2.42 nM; in experiment [2] (Homo sapiens, […]) it was greater than 15000 nM; in experiment [3] (Homo sapiens, MOLM-14, […]), 970 nM; in experiment [4] (Homo sapiens, MOLM-14, 48 h), roughly 2250 nM.

For `CCN(C(=O)c1cc(F)ccc1Oc1nncnc1N1CCC2(C1)CN([C@@H](CCC(C)(C)N)C(C)C)C2)C(C)C` (single isomer, unassigned) [Compound 31, (*S)-2-((5-(2-(6-amino-2,6-dimethylheptan-3-yl)-2,6-diazaspiro[3.4]octan-6-yl)-1,2,4-triazin-6-yl)oxy)-N-ethyl-5-fluoro-N-isopropylbenzamide], the 50% inhibitory concentration (IC50) in experiment [1] (setting [6]) was 2.28 nM; in experiment [2] (Homo sapiens, […]) it was greater than 15000 nM; in experiment [3] (Homo sapiens, MOLM-14, […]), greater than 940 nM; in experiment [4] (Homo sapiens, MOLM-14, 48 h) it was greater than 1000 nM.

Consider `CCN(C(=O)c1cc(F)ccc1Oc1nncnc1N1CCC2(C1)CN([C@@H](CCCN(C)C)C(C)C)C2)C(C)C` [Compound 5, (S)-2-((5-(2-(6-(dimethylamino)-2-methylhexan-3-yl)-2,6-diazaspiro[3.4]octan-6-yl)-1,2,4-triazin-6-yl)oxy)-N-ethyl-5-fluoro-N-isopropylbenzamide formate], for which the IC50 was 2.26 nM in experiment [1] (setting [6]); greater than 15000 nM in experiment [2] (Homo sapiens, […]); 840 nM in experiment [3] (Homo sapiens, MOLM-14, […]); roughly 990 nM in experiment [4] (Homo sapiens, MOLM-14, 48 h).

For `CCN(C(=O)c1cc(F)ccc1Oc1nncnc1N1CCC2(C1)CN([C@@H](CCCNC(C)=O)C(C)C)C2)C(C)C` [Compound 7, (S)-2-((5-(2-(6-acetamido-2-methylhexan-3-yl)-2,6-diazaspiro[3.4]octan-6-yl)-1,2,4-triazin-6-yl)oxy)-N-ethyl-5-fluoro-N-isopropylbenzamide], the IC50 in experiment [1] (setting [6]) was 86.2 nM; in experiment [2] (Homo sapiens, […]) it was greater than 15000 nM; in experiment [3] (Homo sapiens, MOLM-14, […]), greater than 3750 nM; in experiment [4] (Homo sapiens, MOLM-14, 48 h), greater than 2500 nM.

For `CCN(C(=O)c1cc(F)ccc1Oc1nnc(Cl)nc1N1CCC2(C1)CN([C@H](CCCN(C)C)C(C)C)C2)C(C)C` [Compound 411, (R)-2-((3-chloro-5-(2-(6-(dimethylamino)-2-methylhexan-3-yl)-2,6-diazaspiro[3.4]octan-6-yl)-1,2,4-triazin-6-yl)oxy)-N-ethyl-5-fluoro-N-isopropylbenzamide formate], the IC50 in experiment [1] (setting [6]) stood at 0.33 nM; in experiment [3] (Homo sapiens, MOLM-14, […]), 210 nM; in experiment [4] (Homo sapiens, MOLM-14, 48 h), 110 nM; in experiment [5] it was 680 nM.

With `CCN(C(=O)c1cc(F)ccc1Oc1nncnc1N1CCC2(C1)CN([C@@H](CCCCN)C(C)C)C2)C(C)C` (single isomer, unassigned) [Compound 210, (*S)-2-((5-(2-(7-amino-2-methylheptan-3-yl)-2,6-diazaspiro[3.4]octan-6-yl)-1,2,4-triazin-6-yl)oxy)-N-ethyl-5-fluoro-N-isopropylbenzamide], the IC50 is 5.57 nM in experiment [1] (setting [6]); greater than 940 nM in experiment [3] (Homo sapiens, MOLM-14, […]); greater than 1000 nM in experiment [4] (Homo sapiens, MOLM-14, 48 h); 4630 nM in experiment [5].

Turning to `CCN(C(=O)c1cc(F)ccc1Oc1nncnc1N1CCC2(C1)CN([C@@H](CCCO)C(C)C)C2)C(C)C` (single isomer, unassigned) [Compound 48, (*S)—N-ethyl-5-fluoro-2-((5-(2-(6-hydroxy-2-methylhexan-3-yl)-2,6-diazaspiro[3.4]octan-6-yl)-1,2,4-triazin-6-yl)oxy)-N-isopropylbenzamide], the IC50 in experiment [1] (setting [7]) is 70.4 nM; in experiment [2], greater than 15000 nM; in experiment [3] it was greater than 940 nM; in experiment [4] it was greater than 1000 nM.

In the case of `CCN(C(=O)c1cc(F)ccc1Oc1nncnc1N1CCC2(C1)CN([C@@H](CCCNC)C(C)C)C2)C(C)C` [Compound 20, (S)—N-ethyl-5-fluoro-N-isopropyl-2-((5-(2-(2-methyl-6-(methylamino)hexan-3-yl)-2,6-diazaspiro[3.4]octan-6-yl)-1,2,4-triazin-6-yl)oxy)benzamide hydrochloride], the IC50 in experiment [2] (Homo sapiens, […]) was greater than 15000 nM; in experiment [3] (Homo sapiens, MOLM-14, […]) it was greater than 940 nM.

As to `CCN(C(=O)c1cc(F)ccc1Oc1nncnc1N1CCC2(C1)CN([C@@H](C[C@@H](C)CN(C)CCOC)C(C)C)C2)C(C)C` (single isomer, unassigned) [Compound 241, N-ethyl-5-fluoro-N-isopropyl-2-((5-(2-((3*S,5*R)-6-((2-methoxyethyl)(methyl)amino)-2,5-dimethylhexan-3-yl)-2,6-diazaspiro[3.4]octan-6-yl)-1,2,4-triazin-6-yl)oxy)benzamide fumarate], the IC50 was found to be 1.36 nM in experiment [1] (setting [6]); 180 nM in experiment [3] (Homo sapiens, MOLM-14, […]); 280 nM in experiment [4] (Homo sapiens, MOLM-14, 48 h); 1120 nM in experiment [5].

Consider `CCN(C(=O)c1cc(F)ccc1Oc1nnc(C)nc1N1CCC2(C1)CN([C@H](CCCN)C(C)C)C2)C(C)C` [Compound 413, (R)-2-((5-(2-(6-amino-2-methylhexan-3-yl)-2,6-diazaspiro[3.4]octan-6-yl)-3-methyl-1,2,4-triazin-6-yl)oxy)-N-ethyl-5-fluoro-N-isopropylbenzamide formate], for which the IC50 in experiment [1] (setting [6]) was 0.051 nM; in experiment [3] (Homo sapiens, MOLM-14, […]), 720 nM; in experiment [4] (Homo sapiens, MOLM-14, 48 h) it was roughly 590 nM; in experiment [5], 1490 nM.

Source of the values: patent publication US12473295B2, “Substituted straight chain spiro derivatives” (Janssen Pharmaceutica NV, priority 2019, dated 2025).
